Measured values taken from patent publication US5591891A, “N-[Mercaptoacyl (amino acid or peptide ) ] compounds and S-lipophiIic aliphatic carbonyl derivatives thereof as antihypertensives” (Institut National de la Sante et de la Recherche Medicale …, priority 1994, dated 1997).

Tests used:
[1] = target: peptidyldipeptidase A (ACE) (Homo sapiens, UniProt P12821); experiment: Enzymatic inhibition of peptidyldipeptidase A, Z-Phe-His-Leu as substrate; type: biochemical
[2] = target: neutral endopeptidase (NEP) (Homo sapiens, UniProt P08473); experiment: Enzymatic inhibition of neutral endopeptidase, [3H]D-Ala2-Leu-enkephalin as substrate; type: biochemical
neutral endopeptidase (NEP), sequence (P08473 whole entry, species assumed): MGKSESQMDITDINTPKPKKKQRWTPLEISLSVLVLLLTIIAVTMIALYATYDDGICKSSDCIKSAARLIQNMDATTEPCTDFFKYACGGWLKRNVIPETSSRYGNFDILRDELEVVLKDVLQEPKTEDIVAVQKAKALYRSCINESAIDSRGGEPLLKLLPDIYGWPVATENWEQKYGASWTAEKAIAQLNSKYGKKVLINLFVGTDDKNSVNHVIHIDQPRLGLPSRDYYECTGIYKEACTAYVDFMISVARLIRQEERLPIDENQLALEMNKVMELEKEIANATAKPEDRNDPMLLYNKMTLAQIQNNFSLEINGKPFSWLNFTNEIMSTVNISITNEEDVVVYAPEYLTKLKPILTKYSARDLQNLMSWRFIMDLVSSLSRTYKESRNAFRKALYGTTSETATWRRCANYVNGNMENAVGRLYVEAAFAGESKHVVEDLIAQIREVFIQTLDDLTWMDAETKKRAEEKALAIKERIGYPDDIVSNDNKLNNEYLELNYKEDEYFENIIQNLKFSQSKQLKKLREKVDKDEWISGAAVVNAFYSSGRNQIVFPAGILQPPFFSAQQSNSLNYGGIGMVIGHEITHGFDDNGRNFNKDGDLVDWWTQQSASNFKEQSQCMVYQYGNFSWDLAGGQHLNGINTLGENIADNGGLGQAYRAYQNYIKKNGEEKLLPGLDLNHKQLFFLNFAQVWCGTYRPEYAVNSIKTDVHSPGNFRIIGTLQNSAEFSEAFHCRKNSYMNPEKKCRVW
Procedure: The enzymatic inhibitory properties of compounds according to the present invention are measured using [^3 H]D-Ala^2 -Leu-enkephalin as a substrate for neutral endopeptidase as described previously by Llorens et al., Biochem. Biophys.

ACE = target: T1, ACE (Mus musculus, UniProt P09470); experiment: In vivo inhibition of ACE in mouse after oral administration ([3H]Trandaloprilate binding); details: oral 2.6×10^-5 mole/kg, mean of three determinations
T1 construct: from tissue; host or cells: mouse tissue in vivo
T1 sequence (P09470 35-1312): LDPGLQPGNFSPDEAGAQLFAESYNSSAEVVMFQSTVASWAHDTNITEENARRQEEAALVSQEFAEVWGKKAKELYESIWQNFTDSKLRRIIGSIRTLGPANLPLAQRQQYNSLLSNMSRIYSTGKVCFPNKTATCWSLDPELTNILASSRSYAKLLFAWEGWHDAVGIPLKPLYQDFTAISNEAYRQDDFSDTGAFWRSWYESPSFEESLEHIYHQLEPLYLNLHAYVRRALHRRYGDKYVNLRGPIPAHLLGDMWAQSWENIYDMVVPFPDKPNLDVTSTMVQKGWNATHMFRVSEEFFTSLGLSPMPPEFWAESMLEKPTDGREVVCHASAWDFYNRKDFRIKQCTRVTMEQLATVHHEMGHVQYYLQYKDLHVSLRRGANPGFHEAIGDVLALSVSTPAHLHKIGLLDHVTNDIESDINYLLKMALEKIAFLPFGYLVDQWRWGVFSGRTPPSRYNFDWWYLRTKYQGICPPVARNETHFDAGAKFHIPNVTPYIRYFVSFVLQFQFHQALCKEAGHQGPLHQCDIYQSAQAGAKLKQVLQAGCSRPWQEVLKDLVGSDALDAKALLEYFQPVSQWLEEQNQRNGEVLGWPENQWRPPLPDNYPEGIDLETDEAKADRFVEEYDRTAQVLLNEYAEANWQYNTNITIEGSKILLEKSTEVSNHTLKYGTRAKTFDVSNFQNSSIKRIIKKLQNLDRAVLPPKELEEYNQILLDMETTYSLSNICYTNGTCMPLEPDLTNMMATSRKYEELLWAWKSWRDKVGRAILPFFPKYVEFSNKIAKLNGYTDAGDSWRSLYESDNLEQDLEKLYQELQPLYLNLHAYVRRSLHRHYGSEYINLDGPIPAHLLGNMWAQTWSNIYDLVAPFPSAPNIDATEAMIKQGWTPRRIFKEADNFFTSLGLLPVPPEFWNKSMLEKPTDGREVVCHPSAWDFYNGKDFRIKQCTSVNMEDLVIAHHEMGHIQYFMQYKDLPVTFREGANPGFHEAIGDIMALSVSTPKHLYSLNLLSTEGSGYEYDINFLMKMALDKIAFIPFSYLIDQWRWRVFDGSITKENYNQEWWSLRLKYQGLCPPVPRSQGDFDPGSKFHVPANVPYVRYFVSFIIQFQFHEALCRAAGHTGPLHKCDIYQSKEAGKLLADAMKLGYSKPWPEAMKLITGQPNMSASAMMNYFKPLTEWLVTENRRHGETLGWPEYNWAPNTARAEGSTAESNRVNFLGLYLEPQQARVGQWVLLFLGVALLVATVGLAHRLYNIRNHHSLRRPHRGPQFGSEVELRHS
Source text: (§1) [S,S,S]-N-[2-Adamantoylthiomethyl-1-oxo-3-phenylbutyl]alanine, a diastereomeric mixture of N-[2-acetylthiomethyl-1-oxo-3-phenylbutyl]alanine (four diastereomers) and a control solution of saline are orally administered at a concentration of 2.6×10^-5 mole/kg) in mice at t=o.
(§2) The inhibition of NEP in the kidney is expressed as the difference (in %) between specific [^3 H]HACBOGly binding in the absence of inhibitor (controls injected with saline) and in the presence of inhibitor. The inhibition values in Table V are the mean value of three determinations.
The protocol in Example 91 is used also to determine […] inhibition except for the following: the selective tritiated ACE inhibitor is [^3 H]Trandaloprilate (0.5 μCi); and the non-specific binding is determined by the co-administration of [^3 H]Trandaloprilate with 1000 eq. of captopril.

NEP = target: T2, NEP (Mus musculus, UniProt Q61391); experiment: In vivo inhibition of NEP in mouse kidney after oral administration ([3H]HACBOGly binding); details: oral 2.6×10^-5 mole/kg, mean of three determinations
T2 construct: the kidney is rapidly set apart and homogenized at 4° C. in a Tris HCl buffer; from tissue; host or cells: mouse kidney (in vivo, then homogenate)
T2 sequence (Q61391 1-750): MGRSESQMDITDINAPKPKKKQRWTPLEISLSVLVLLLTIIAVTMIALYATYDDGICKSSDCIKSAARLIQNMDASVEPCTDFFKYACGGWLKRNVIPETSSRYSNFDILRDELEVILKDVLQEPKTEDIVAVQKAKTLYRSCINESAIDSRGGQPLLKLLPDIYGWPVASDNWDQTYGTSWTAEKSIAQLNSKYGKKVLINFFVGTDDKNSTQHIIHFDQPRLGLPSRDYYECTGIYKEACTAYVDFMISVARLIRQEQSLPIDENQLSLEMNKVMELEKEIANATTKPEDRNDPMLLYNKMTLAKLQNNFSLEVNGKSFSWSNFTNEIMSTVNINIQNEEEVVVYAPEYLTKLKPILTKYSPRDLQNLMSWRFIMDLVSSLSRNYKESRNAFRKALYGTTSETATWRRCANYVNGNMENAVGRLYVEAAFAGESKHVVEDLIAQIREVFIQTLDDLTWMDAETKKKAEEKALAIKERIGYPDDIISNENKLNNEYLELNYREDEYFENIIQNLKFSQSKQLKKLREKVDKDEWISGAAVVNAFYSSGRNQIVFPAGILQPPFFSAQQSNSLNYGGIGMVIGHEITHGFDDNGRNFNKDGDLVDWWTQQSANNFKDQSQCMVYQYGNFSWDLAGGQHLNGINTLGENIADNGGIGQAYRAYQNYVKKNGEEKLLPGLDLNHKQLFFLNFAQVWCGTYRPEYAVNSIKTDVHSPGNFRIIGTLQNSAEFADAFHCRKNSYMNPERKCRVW
Source text: as §1, §2

peptidyldipeptidase A (ACE), sequence (P12821 30-1306, species assumed): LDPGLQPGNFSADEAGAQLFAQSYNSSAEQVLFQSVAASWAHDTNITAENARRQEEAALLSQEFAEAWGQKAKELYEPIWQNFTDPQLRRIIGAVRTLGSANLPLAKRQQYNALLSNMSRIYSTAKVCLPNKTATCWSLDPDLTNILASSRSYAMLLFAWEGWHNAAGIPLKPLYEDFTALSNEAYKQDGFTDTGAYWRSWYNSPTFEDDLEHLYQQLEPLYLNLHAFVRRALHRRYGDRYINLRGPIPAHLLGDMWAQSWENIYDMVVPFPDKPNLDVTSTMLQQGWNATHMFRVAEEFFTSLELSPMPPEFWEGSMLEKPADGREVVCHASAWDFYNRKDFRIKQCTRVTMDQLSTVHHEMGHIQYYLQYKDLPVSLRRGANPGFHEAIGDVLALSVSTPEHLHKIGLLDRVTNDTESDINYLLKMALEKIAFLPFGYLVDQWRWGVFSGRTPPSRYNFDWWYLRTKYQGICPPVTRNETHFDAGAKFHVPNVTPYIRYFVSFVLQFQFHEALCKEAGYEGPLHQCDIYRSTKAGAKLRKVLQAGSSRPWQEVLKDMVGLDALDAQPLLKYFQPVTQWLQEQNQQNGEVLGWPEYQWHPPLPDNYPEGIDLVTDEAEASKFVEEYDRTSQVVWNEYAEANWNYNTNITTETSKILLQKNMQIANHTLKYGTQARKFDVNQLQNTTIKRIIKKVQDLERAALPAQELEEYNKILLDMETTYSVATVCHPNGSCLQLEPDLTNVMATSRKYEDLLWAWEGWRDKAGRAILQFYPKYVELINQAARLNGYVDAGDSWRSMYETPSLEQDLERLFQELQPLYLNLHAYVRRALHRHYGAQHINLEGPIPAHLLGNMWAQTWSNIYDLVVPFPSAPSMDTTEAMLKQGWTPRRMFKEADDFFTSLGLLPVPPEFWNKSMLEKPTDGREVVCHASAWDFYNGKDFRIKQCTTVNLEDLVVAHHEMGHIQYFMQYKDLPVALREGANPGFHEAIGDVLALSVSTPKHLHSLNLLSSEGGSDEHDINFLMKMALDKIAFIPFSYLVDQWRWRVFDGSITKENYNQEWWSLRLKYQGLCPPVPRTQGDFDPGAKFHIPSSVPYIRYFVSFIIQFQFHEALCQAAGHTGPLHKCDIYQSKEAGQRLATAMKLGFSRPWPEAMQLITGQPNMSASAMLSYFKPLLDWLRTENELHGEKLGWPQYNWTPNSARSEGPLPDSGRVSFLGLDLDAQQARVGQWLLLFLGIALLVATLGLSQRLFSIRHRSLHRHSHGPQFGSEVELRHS

| SMILES | IC50 ([1]; Table IV) | IC50 ([2]; Table IV) | IC50 ([1]; Table III) | IC50 ([2]; Table III) | further results |
| --- | --- | --- | --- | --- | --- |
| CC(c1ccc(O)cc1)C(CS)C(=O)N[C@@H](C)C(=O)O (stereo partly drawn) [Example 73, N-[2-Mercaptomethyl,3-(4-hydroxyphenyl)-1-oxobutyl]alanine] | 6.2 nM | 3.5 nM |  |  |  |
| CC(c1ccc(F)c(F)c1)C(CS)C(=O)N[C@@H](Cc1ccc(O)cc1)C(=O)O (stereo partly drawn) [Example 84, N-[2-Mercaptomethyl-3-(3,4-difluorophenyl)-1-oxobutyl]tyrosine] | 3.5 nM | 6.3 nM |  |  |  |
| CC(=O)SC(C(=O)N[C@@H](Cc1ccc(O)cc1)C(=O)O)C(C)c1ccc(F)cc1 (stereo partly drawn) [Example 80, N-[2-Acetylthio-3-(4-fluorophenyl)-1-oxobutyl]tyrosine] | 5.9 nM | 4.8 nM |  |  |  |
| CC(c1ccc(F)c(F)c1)C(CS)C(=O)N[C@@H](C)C(=O)O (stereo partly drawn) [Example 82, N-[2-Mercaptomethyl-3-(3,4-difluorophenyl)-1-oxobutyl]alanine] | 5 nM | 3 nM |  |  |  |
| CC(C)[C@H](NC(=O)C(S)Cc1ccccc1)C(=O)N[C@@H](Cc1ccc(O)cc1)C(=O)O (stereo partly drawn) [Example 19, N-(2-Mercapto-3-phenylpropanoyl)-Val-Tyr] |  |  | 4 ± 1 nM | 5 ± 2 nM |  |
| CCCC[C@H](NC(=O)C(S)Cc1ccccc1)C(=O)N[C@@H](Cc1ccc(O)cc1)C(=O)O (stereo partly drawn) [Example 22, N-(2-Mercapto-3-phenylpropanoyl)-Nle-Tyr] |  |  | 30 ± 5 nM | 18 ± 2 nM |  |
| CC(c1ccc(O)cc1)C(CS)C(=O)N[C@@H](Cc1ccc(O)cc1)C(=O)O (stereo partly drawn) [Example 75, N-[2-Mercaptomethyl-3-(4-hydroxyphenyl)-1-oxobutyl]tyrosine] | 3.5 nM | 1.8 nM |  |  |  |
| CCC(C)C(S)C(=O)NC(C(=O)N[C@@H](Cc1ccc(O)cc1)C(=O)O)C(C)C (stereo partly drawn) [Example 25, N-(2-Mercapto-3-methylpentanoyl)-Val-Tyr] |  |  | 2 ± 0.5 nM | 5 ± 2 nM |  |
| CC(c1ccccc1)C(CS)C(=O)N[C@@H](Cc1ccc(O)cc1)C(=O)O (stereo partly drawn) [Example 61, N-(2-Mercaptomethyl-1-oxo-3-phenylbutyl)tyrosine] | 1.8 nM |  |  |  |  |
| CC(C)C[C@H](NC(=O)C(S)Cc1ccccc1)C(=O)N[C@@H](Cc1ccc(O)cc1)C(=O)O (stereo partly drawn) [Example 23, N-(2-Mercapto-3-phenylpropanoyl)-Leu-Tyr] |  |  | 30 ± 5 nM | 3 ± 2 nM |  |
| CC[C@H](C)[C@H](NC(=O)C(S)C(C)C)C(=O)N[C@@H](Cc1ccc(O)cc1)C(=O)O (stereo partly drawn) [Example 27, N-(2-Mercapto-3-methylbutanoyl)-Ile-Tyr] |  |  | 0.3 ± 0.1 nM | 1.4 ± 0.2 nM |  |
| CC(c1ccccc1)C(CS)C(=O)NCC(=O)O (stereo not drawn) [Example 63, N-(2-Mercaptomethyl-1-oxo-3-phenylbutyl)glycine] | 25 nM | 1.3 nM |  |  |  |
| C[C@H](NC(=O)[C@@H](CSC(=O)C12CC3CC(CC(C3)C1)C2)[C@H](C)c1ccccc1)C(=O)O [91(A), [S,S,S]--N-[2-adamantoylthiomethyl-1-oxo-3-phenylbutyl]alanine] |  |  |  |  | % Inhibition ACE (ACE; time 30 min): 75%; % Inhibition ACE (ACE; time 240 min): 30%; % Inhibition NEP (NEP; time 30 min): 85%; % Inhibition NEP (NEP; time 240 min): 70% |
| CC[C@H](C)[C@H](NC(=O)C(S)Cc1ccccc1)C(=O)N[C@@H](Cc1ccc(O)cc1)C(=O)OC (stereo partly drawn) [Example 20, N-(2-Mercapto-3-phenylpropanoyl)-Ile-Tyr-OMe] |  |  | 2.5 ± 0.1 nM | 3.2 ± 0.3 nM |  |
| CC(c1ccccc1)C(CS)C(=O)N[C@@H](COCc1ccccc1)C(=O)O (stereo partly drawn) [Example 65, N-(2-Mercaptomethyl-1-oxo-3-phenylbutyl)-O-benzylserine] | 71 nM | 4 nM |  |  |  |
| CC(=O)SCC(C(=O)N[C@@H](C)C(=O)O)C(C)c1ccccc1 (stereo partly drawn) [91(B), N-[2-acetylthiomethyl-1-oxo-3-phenylbutyl]alanine] |  |  |  |  | % Inhibition ACE (ACE; time 30 min): 30%; % Inhibition ACE (ACE; time 240 min): 15%; % Inhibition NEP (NEP; time 30 min): 65%; % Inhibition NEP (NEP; time 240 min): 45% |
| CC(c1ccccc1)C(CS)C(=O)N[C@@H](C)C(=O)O (stereo partly drawn) [Example 67, N-(2-Mercaptomethyl-1-oxo-3-phenylbutyl)alanine] | 2.8 nM | 2 nM |  |  |  |
| CC(=O)SCC(C(=O)N[C@@H](C)C(=O)O)C(C)c1ccc(F)cc1 (stereo partly drawn) [Example 78, N-[2-Acetylthiomethyl-3-(4-fluorophenyl)-1-oxobutyl]alanine] | 8.5 nM | 1.9 nM |  |  |  |
| CC[C@H](C)[C@H](NC(=O)C(S)c1ccccc1)C(=O)N[C@@H](Cc1ccc(O)cc1)C(=O)O (stereo partly drawn) [Example 28, N-(2-Mercapto-2-phenylacetyl)-Ile-Tyr] |  |  | 3.5 ± 0.5 nM | 4.5 ± 0.5 nM |  |
| CCC(C)C(NC(=O)C(S)Cc1ccccc1)C(=O)N1CCCCC1C(=O)O (stereo not drawn) [Example 21, N-(2-Mercapto-3-phenylpropanoyl)-Ile-Pip] |  |  | 2 ± 1 nM | 5 ± 2 nM |  |
| CC(c1ccccc1)C(CSS)C(=O)N[C@@H](Cc1ccc(O)cc1)C(=O)O (stereo partly drawn) [Example 88(A), N-(2-Mercaptothiomethyl-1-oxo-3-phenylbutyl)tyrosine] | 3 nM | 1 nM |  |  |  |
| CCCC[C@H](NC(=O)C(CS)C(C)c1ccccc1)C(=O)O (stereo partly drawn) [Example 69, N-(2-Mercaptomethyl-1-oxo-3-phenylbutyl)norleucine] | 5.8 nM |  |  |  |  |
| CC(C)C(NC(=O)C(S)CCc1ccccc1)C(=O)N[C@@H](Cc1ccc(O)cc1)C(=O)O (stereo partly drawn) [Example 26, N-(2-Mercapto-4-phenylbutanoyl)-Val-Tyr] |  |  | 8 ± 2 nM | 10 ± 1 nM |  |
| CC(c1ccccc1)C(CSS)C(=O)N[C@@H](Cc1ccc(O)cc1)C(=O)O (stereo partly drawn) [88(B), N-(2-mercaptothiomethyl-1-oxo-3-phenylbutyl)tyrosine] | 52 nM | 3.1 nM |  |  |  |
| CCC(C)C(S)C(=O)N[C@@H](Cc1ccccc1)C(=O)N[C@@H](Cc1ccc(O)cc1)C(=O)O (stereo partly drawn) [Example 24, N-(2-Mercapto-3-methylpentanoyl)-Phe-Tyr] |  |  | 8 ± 2 nM | 3 ± 1 nM |  |
| C[C@H](NC(=O)C(CS)C1CCc2ccccc21)C(=O)O (stereo partly drawn) [Example 71, N-[3-Mercapto-2-(1-indanyl)-1-oxopropyl]alanine] | 7.9 nM | 1.3 nM |  |  |  |
